Publication PMC7822874, “Chemoprotective antimalarials identified through quantitative high-throughput screening of Plasmodium blood and liver stage parasites” (Scientific Reports, 2021)
Like-named read-outs stand apart in the source and are kept apart here.

How the values were obtained:
[1] = tested on: Plasmodium falciparum Dd2 asexual blood stage parasites; assay: microbe, parasite or virus in culture; parameters: species or system Plasmodium falciparum Dd2 in human erythrocytes; single determination (one 11-point concentration-response curve); conditions: Plasmodium falciparum, DD2, Erythrocyte, 72 h
[2] = in vitro; conditions: human
[3] = HepG2-A16-CD81EGFP cells, uninfected

Compound	AC50 ([1]; read-out: AC50)	viability at 48 h, 1 µM [2, 3]	viability at 48 h, 3 µM [2, 3]	further results
Cc1cccc(NC(=O)Cn2c(C)c(C#N)c3ccccc32)c1C [MLS000030212-01]	5960 nM	99.9%		viability at 48 h [2, 3]: 99.9%
Cc1cc(C)cc(N(CC(=O)NCc2ccc3c(c2)OCO3)C(=O)CCC(=O)Nc2ccccn2)c1 [MLS000032464-01]	4220 nM			viability at 66 h [2, 3]: 96.4%
O=C(Nc1ccc(N2CCCCC2)c(Cl)c1)c1nnc[nH]1 [MLS000035389-01]	4730 nM	101%	99%	
C=CCOC(=O)C(C#N)c1nc2ccccc2nc1N1CCC(C(=O)OCC)CC1 (stereo not shown) [MLS000036470-01]	2370 nM	108%	100%	
COc1cccc(Cn2c(Oc3ccccc3)nc3c2c(=O)n(C)c(=O)n3C)c1 [MLS000038011-01]	4730 nM	107%	98%	
CCOC(=O)c1cn(CC)c2cc(N3CCSCC3)c(F)cc2c1=O [MLS000038775-01]	1680 nM	89%	85%	
Clc1ccc(-c2nnc(N3CCCC3)nn2)cc1 [MLS000038815-01]	531 nM			viability at 66 h [2, 3]: 102%
CCc1nc(Nc2ccc3nccnc3c2)c2oc3ccccc3c2n1 [MLS000041713-01]	2370 nM	104%	95%	
CCN1CCCC1CNc1ncnc2c1[nH]c1ccc(Cl)cc12 (stereo not shown) [MLS000041736-01]		98.5%		AC50 [1]: 2990 nM; viability at 48 h [2, 3]: 98.5%
Oc1ccc(C2NCc3ccccc3-n3cccc32)cc1Cl (stereo not shown) [MLS000047999-01]	1500 nM	99%	90%	
CCC(C)c1ccc(O)c(NC(=O)c2cncc(Br)c2)c1 (stereo not shown) [MLS000062368-01]	2990 nM	113%	103%	
Cc1cc(C(C)c2ccccc2)c(O)c(CN2CCOCC2)c1C (stereo not shown) [MLS000064176-01]	2990 nM	108%		viability at 48 h [2, 3]: 108%
COc1ccc(CNCc2cc3c(C(C)(C)C)nn(-c4ccccc4)c3[nH]c2=O)cc1 [MLS000067276-01]	841 nM	103%	109%	
CN(C)c1cc[n+](Cc2ccccc2)cc1 [MLS000070144-01]	10600 nM			viability at 66 h [2, 3]: 96.5%
CC1(C)Cc2c(c(N3CCOCC3)nc3snc(Br)c23)CO1 [MLS000071231-01]	299 nM	87%	86%	
Oc1c2c(nc3ccc(Br)cc13)CCCC2 [MLS000074180-01]	6680 nM	100%	98%	
CCCCN(C(=O)c1ccco1)c1nnc(-c2cc(OC)c(OC)c(OC)c2)s1 [MLS000075381-01]	2990 nM			viability at 66 h [2, 3]: 104%
Cc1cc(Nc2ccc3ccccc3c2)n2ncnc2n1 [MLS000077665-01]	596 nM	88%	86%	
CCCCn1c2c(c(=N)c3c1CCC3)CCC2 [MLS000080126-01]	8410 nM	111%	80%	
COc1ccc2c(c1)C1(Nc3ccccc3-c3nc4ccccc4n31)C(=O)N2 (stereo not shown) [MLS000080605-01]	596 nM	99%	104%	
CCCc1cc(=O)oc2c(C)c(O)c(CN3CCCCC3)cc12 [MLS000081526-01]	3350 nM			viability at 66 h [2, 3]: 104%
Cc1c(O)c(CN2CCCC2)cc2c1oc(=O)c1ccccc12 [MLS000081529-01]	2660 nM	108%	102%	

Compound	AC50 ([1]; read-out: AC50)	viability at 48 h, 1 µM [2, 3]	viability at 48 h, 3 µM [2, 3]	further results
CC(C)(C)c1ccc(O)c(CN2CCN(c3ccccc3)CC2)c1 [MLS000084717-01]				AC50 [1]: 1500 nM; viability [2]: 98.2%
Cc1cc(N2CCN(C)CC2)nc2ccc(NC(=O)c3ccc(Br)o3)cc12 [MLS000086536-01]	6680 nM	104%	104%	
COc1ccc(N2/C(=C/C(C)=O)NC(=O)c3c(C)cc(C)nc32)cc1 [MLS000088720-01]	3350 nM			viability at 66 h [2, 3]: 103%
CCOC(=O)c1nnn(-c2nonc2-n2cccc2)c1CN1CCCCC1 [MLS000090434-01]	7500 nM	102%	100%	
CCOC(=O)CC(=O)CSc1nc2ccccc2c(=O)n1-c1ccc(C(=O)N2CCOCC2)cc1 [MLS000095558-01]	13300 nM	87%	87%	
Cc1ccc(C(=O)c2oc3ccccc3c2NC(=O)c2cc(-c3cc(C)ccc3O)[nH]n2)cc1 [MLS000331963-01]		103%	102%	
COc1ccc(-c2c[n+](CC(=O)c3cccs3)c3n2CCC3)cc1 [MLS000333575-01]				viability [2]: 101%
NS(=O)(=O)c1cccc(NC(=O)CSc2nn(-c3ccccc3)c(=S)s2)c1 [MLS000339501-01]		105%	100%	
O=S(=O)(c1ccc(F)cc1)N1CCN(/C(S)=N/Cc2ccco2)CC1 [MLS000409296-01]				viability at 66 h [2, 3]: 103%
Cc1ccc2c(c1)-c1c(ssc1=S)C(C)(C)N2C(=O)c1ccco1 [MLS000525939-01]		100%	100%	
CCc1ccc2c(c1)C1(NN=C(c3ccc(C)cc3)S1)C(=O)N2 (stereo not shown) [MLS000528737-01]		115%	80%	
Cc1ccccc1Nc1nnc(SCc2cc(=O)n3ccsc3n2)s1 [MLS000565690-01]		107%	101%	
Cc1ccc(NN=C2C=CC(=O)c3ncccc32)cc1 [MLS000585898-01]		93%	88%	
CCOc1ccc2nc(C)cc(Nc3cccc([N+](=O)[O-])c3)c2c1 [MLS000663974-01]				viability at 66 h [2, 3]: 102%
c1cc(Nc2ncnc3sc4c(c23)CCC4)ccn1 [MLS000681348-01]		103%		viability at 48 h [2, 3]: 103%
Cc1ccc(-n2nc3c(Cl)nnc(C)c3c2C)cc1 [MLS000698458-01]		105%	104%	
CCOc1cc(CNC(C)C(O)c2ccccc2)cc(Cl)c1OCC (stereo not shown) [MLS000701716-01]				viability at 48 h, 1 µM [2]: 90%; viability at 48 h, 3 µM [2]: 88%
CCOC(=O)Cn1c2c(c(=N)c3c1CCC3)CCCC2 [MLS000702567-01]				viability at 66 h [2, 3]: 106%
Cc1ccc(-c2nc(CN3CCCCC3)cc(CN3CCCCC3)c2O)cc1 [MLS000713293-01]		101%		viability at 48 h [2, 3]: 101%
Cc1cccc(CSc2nn3c(=O)c(C)nnc3s2)c1 [MLS000724933-01]		115%	100%	
Cc1ccc(CN(C)C(=O)c2cc(COc3ccc(F)cc3Cl)on2)o1 [MLS000734222-01]				viability at 66 h [2, 3]: 101%
CCCC(=O)Nc1sc2c(c1C(=O)Nc1ccccn1)CCCC2 [MLS000765104-01]				viability at 66 h [2, 3]: 101%

Compound	AC50 ([1]; read-out: AC50)	viability at 48 h, 1 µM [2, 3]	viability at 48 h, 3 µM [2, 3]	further results
COc1ccc(C2CC(c3cccs3)=NN2C(=O)c2ccco2)cc1OC (stereo not shown) [MLS000769739-01]				viability at 66 h [2, 3]: 101%
Cc1n[nH]c(=S)n(/N=C/c2cccs2)c1=O [MLS000780118-01]				viability at 66 h [2, 3]: 98.7%
Cc1cccc(Cl)c1/N=C(\S)N1CCN(c2ccc([N+](=O)[O-])cn2)CC1 [MLS000833563-01]		95%	93%	
OC(CNCCNc1ncccc1C(F)(F)F)Cn1ccc2ccccc21 (stereo not shown) [MLS000833573-01]		106%	96%	
CCOC(=O)N1CCc2c(sc3nc4n(c(=O)c23)N=C(c2ccc(OC)cc2)CS4)C1 [MLS000859689-01]		99%	96%	
O=C(C[n+]1cc(-c2ccccc2)n2c1CCC2)c1cccs1 [MLS001003812-01]		94%	86%	
COc1ccc(C(=O)C[n+]2ccc(N(C)C)cc2)cc1 [MLS001044390-01]				viability at 66 h [2, 3]: 100%
COc1ccc(CCn2c(=N)c(C(=O)NC3CCCCC3)cc3c(=O)n4ccccc4nc32)cc1 [MLS001146200-01]		102%	98%	
Cc1cccc(NC(=O)c2cc(S(=O)(=O)N(C)c3ccc(F)cc3)ccc2Cl)n1 [MLS001160863-01]		97%	92%	
CCOc1cc(CN2CCCC(N3CCN(c4ccc(F)cc4)CC3)C2)ccc1OC (stereo not shown) [MLS001162894-01]		114%	103%	
Clc1cccc(CN2CCc3c([nH]c4ccccc34)C2)c1Cl [MLS001164092-01]		104%		viability at 48 h [2, 3]: 104%
C=C(C)CSc1nc2sc3c(c2c(=O)n1-c1ccc(OC)cc1)CCN(C)C3 [MLS001173660-01]		106%	105%	
Cc1ccc2[nH]c(C(=O)Nc3ccc(F)cc3)cc2c1 [MLS001183414-01]				viability at 66 h [2, 3]: 99.7%
Cc1ccc2nc3c(c(Nc4ccc(O)cc4)c2c1)CCC3 [MLS001196969-01]		99%	99%	
COc1ccc2cc3cc(C(=O)NCCC(C)C)oc3nc2c1 [MLS001199461-01]		101%	101%	
CCc1cc(C(=O)c2ccccc2)c(N)s1 [MLS001211275-01]				viability at 66 h [2, 3]: 107%
COC(CSc1nc(N)c2c3c(sc2n1)CN(C)CC3)OC [MLS001215130-01]				viability at 66 h [2, 3]: 97.5%
CCSc1nnc(SCC(=O)c2c(N)n(C)c(=O)n(C)c2=O)s1 [MLS002169255-01]		93%	88%	
CN(C(=O)c1ccc(NC(=O)Cc2cccc(NC(=O)C3CCCN(C(=O)CCc4ccccc4)C3)c2)cc1)C1CCCC1 (stereo not shown) [MLS002402746-01]		104%		viability at 48 h [2, 3]: 104%
CCCCN(C)[S+](=O)([O-])c1ccc(C(=O)Nc2ccc(-c3nc4ccc(C)cc4s3)cc2)cc1 [NCGC00134689-01]				viability at 66 h [2, 3]: 103%
COc1ccccc1NC(=O)Cn1c(C)ccc(N[S+](=O)([O-])c2ccccc2)c1=O [NCGC00430868-01]				viability at 66 h [2, 3]: 109%
